Patent US11370785B2, “Multicyclic compounds as farnesoid X receptor modulators” (BRISTOL-MYERS SQUIBB COMPANY, priority 2017, dated 2022)

These compounds were tested against T1, human FXR (Homo sapiens, UniProt Q96RI1) (assay: transient human FXR/Gal4-luciferase reporter assay). Conditions: Gal4-hFXR reporter in HEK293 cells; read-out: HLE GAL-FXR EC50.
T1 construct: expressed in transfected cells; host or cells: HEK293 cells stably carrying a 5xGal4-response-element firefly luciferase reporter, transiently transfected with the pcDNA3.1-Gal4-FXR plasmid
T1 sequence (Q96RI1 262-486 limits assumed): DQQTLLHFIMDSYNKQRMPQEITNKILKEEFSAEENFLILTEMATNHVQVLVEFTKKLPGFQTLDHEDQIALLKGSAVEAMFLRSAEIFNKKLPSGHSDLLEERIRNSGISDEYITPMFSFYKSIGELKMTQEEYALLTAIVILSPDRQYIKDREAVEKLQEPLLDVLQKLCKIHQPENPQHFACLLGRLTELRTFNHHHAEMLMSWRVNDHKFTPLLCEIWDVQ
Type: cell-based
Method: The exemplified compounds of the present invention were tested in the transient human FXR/Gal4-luciferase reporter assay, and assay results were reported in Table 1 together with other analytical data.
A Gal4-hFXR fusion construct reporter system was used as the primary assay to characterize compound activity. A construct including 5 copies of the Gal4 promoter response element upstream of a firefly luciferase reporter cDNA was stably expressed in HEK293 cells. This reporter cell line was maintained in Dulbecco's Modified Eagle's medium (DMEM; Gibco) supplemented with 1% penicillin-streptomycin (P/S) solution, 500 μg/mL Zeocin and 10% charcoal/dextran-treated fetal bovine serum (cs-FBS) at 37° C. in a humidified 5% CO2 atmosphere. Another plasmid was constructed in which the human cytomegalovirus promoter in the pcDNA3.1 vector directs the expression of the cDNA encoding a fusion protein comprised of the DNA binding domain from the Gal4 transcription factor fused to the ligand binding domain from human FXR.
The day prior to transfection, the reporter cells in culture are detached from the plate with trypsin and plated into a T75 flask at a sufficient density to achieve approximately 90% confluence the next morning. The transfection reagents are prepared by separately diluting 25 μg of the pcDNA3.1-Gal4-FXR plasmid into 1.87 mL of Opti-MEM (Thermo-Fisher), and 40 μL of Lipofectamine 2000 (Thermo-Fisher) into 1.87 mL of Opti-MEM, and then adding the diluted DNA solution into the diluted Lipofectamine 2000 solution and incubating at room temperature for 15-20 minutes. The mixture is further diluted with 10 mL of a solution comprised of DMEM, 10% cs-FBS, and 1% P/S immediately prior to transferring to the cells. The maintenance culture media is aspirated from the cells and the final transfection mixture is added before the cells are incubated overnight at 37° C. in a humidified 5% CO2 atmosphere. This protocol can be scaled up, and the transiently transfected cells can be cryopreserved in an assay-ready format.
For compound testing, 100 nL of the compounds (serial dilutions in DMSO) are dispensed with an Echo acoustic dispenser (Labcyte) into the wells of a Corning/Costar clear bottom 384-well white plate. The transfected cells are harvested, counted, and diluted such that 10-25,000 cells in 25 μL are plated into each well of the 384-well compound assay plate. The compound-treated cells are incubated overnight at 37° C. in a humidified 5% CO2 atmosphere. The next morning 25 μL of Steady-Glo (Promega) are added to each well of the plate, the mixture is incubated for 15 min. with shaking, and luminescence is measured on an Envision (Perkin Elmer) plate reader. Background counts from cells treated with DMSO alone are subtracted from all raw counts, and the corrected values are converted to a percentage of the control response attained with 8 μM GW-4064.

| Structure (SMILES) | EC50 [nM] |
| --- | --- |
| Clc1cccc(Cl)c1-c1noc(C2CC2)c1C=C1CC2(CCN(c3ccc(-c4nn[nH]n4)cc3)CC2)C1 [Example 50, 4-((7-(4-(2H-tetrazol-5-yl)phenyl)-7-azaspiro[3.5]nonan-2-ylidene)methyl)-5-cyclopropyl-3-(2,6-dichlorophenyl)isoxazole] | 4330 |
| O=C(NS(=O)(=O)C1CC1)c1cc(C(F)(F)F)c2cc(N3CCC4(CC3)CC(Cc3c(-c5ccccc5C(F)(F)F)noc3C3CC3)C4)ccc2n1 [Example 82, 6-(2-((5-Cyclopropyl-3-(2-(trifluoromethyl)phenyl)isoxazol-4-yl)methyl)-7-azaspiro[3.5]nonan-7-yl)-N-(cyclopropylsulfonyl)-4-(trifluoromethyl)quinoline-2-carboxamide] | 11 |

Same assay, conditions: Gal4-hFXR reporter in HEK293 cells; relative to 8 μM GW-4064; read-out: FXR EC50

| Structure (SMILES) | EC50 [nM] |
| --- | --- |
| O=C(O)c1ccc2cc(N3CCC4(CC3)CC(Cc3c(-c5c(Cl)cccc5Cl)noc3C3CC3)C4)ccc2n1 [Example 40] | 51 |
| O=C(O)c1cc(C(F)(F)F)c2cc(N3CCC4(CC3)CC(Cc3c(-c5c(Cl)cccc5Cl)noc3C3CC3)C4)ccc2n1 [Example 41] | 13 |
| O=C(O)C1(c2ccc(N3CCC4(CC3)CC(=Cc3c(-c5c(Cl)cccc5Cl)noc3C3CC3)C4)cc2)CCC1 [Example 42] | 210 |
| Cc1cc2cc(N3CCC4(CC3)CC(=Cc3c(-c5c(Cl)cccc5Cl)noc3C3CC3)C4)ccc2nc1C(=O)O [Example 43] | 1350 |
| O=C(O)c1ccc(CCN2CCC3(CC2)CC(=Cc2c(-c4c(Cl)cccc4Cl)noc2C2CC2)C3)cc1 [Example 44] | 765 |
| O=C(O)Cc1ccc(N2CCC3(CC2)CC(=Cc2c(-c4c(Cl)cccc4Cl)noc2C2CC2)C3)cc1 [Example 45] | 320 |
| O=C(O)C1(c2ccc(N3CCC4(CC3)CC(=Cc3c(-c5c(Cl)cccc5Cl)noc3C3CC3)C4)cc2)CC1 [Example 46] | 391 |
| O=C(O)c1ccc2cc(N3CCC4(CC3)CC(=Cc3c(-c5c(Cl)cccc5Cl)noc3C3CC3)C4)ccc2c1 [Example 47] | 53 |
| N#Cc1ccc(N2CCC3(CC2)CC(=Cc2c(-c4c(Cl)cccc4Cl)noc2C2CC2)C3)cc1 [Example 48, 4-(2-((5-cyclopropyl-3-(2,6-dichlorophenyl)isoxazol-4-yl)methylene)-7-azaspiro[3.5]nonan-7-yl)benzonitrile] | 2360 |
| N#Cc1cccc(N2CCC3(CC2)CC(=Cc2c(-c4c(Cl)cccc4Cl)noc2C2CC2)C3)c1 [Example 49] | 2570 |
| Clc1cccc(Cl)c1-c1noc(C2CC2)c1C=C1CC2(CCN(c3cccc(-c4nn[nH]n4)c3)CC2)C1 [Example 51] | 1080 |
| O=C(O)c1ccc(CN2CCC3(CC2)CC(=Cc2c(-c4c(Cl)cccc4Cl)noc2C2CC2)C3)cc1 [Example 52] | 4320 |
| Cn1nnc(-c2ccc(N3CCC4(CC3)CC(=Cc3c(-c5c(Cl)cccc5Cl)noc3C3CC3)C4)cc2)n1 [Example 53] | 908 |
| O=C(O)c1cc2ccc(N3CCC4(CC3)CC(=Cc3c(-c5c(Cl)cccc5Cl)noc3C3CC3)C4)cc2nn1 [Example 54] | 267 |
| Cc1cccc(Cl)c1-c1noc(C2CC2)c1C=C1CC2(CCN(c3ccc4cc(C(=O)O)ccc4c3)CC2)C1 [Example 55] | 125 |
| Cc1cccc(Cl)c1-c1noc(C2CC2)c1C=C1CC2(CCN(c3ccc4nc(C(=O)O)ccc4c3)CC2)C1 [Example 56] | 152 |
| COCCn1cc(C(=O)O)c2ccc(N3CCC4(CC3)CC(=Cc3c(-c5c(Cl)cccc5Cl)noc3C3CC3)C4)cc21 [Example 57] | 19 |
| Cc1cccc(Cl)c1-c1noc(C2CC2)c1C=C1CC2(CCN(c3ccc4nc(C(=O)O)cc(C(F)(F)F)c4c3)CC2)C1 [Example 58] | 10 |
| Cc1cccc(Cl)c1-c1noc(C2CC2)c1C=C1CC2(CCN(c3ccc4c(C(=O)O)cn(C)c4c3)CC2)C1 [Example 59] | 10 |
| Cc1cccc(Cl)c1-c1noc(C2CC2)c1C=C1CC2(CCN(c3nc4c(F)cc(C(=O)O)cc4s3)CC2)C1 [Example 60] | 144 |
| O=C(O)COc1ccc(N2CCC3(CC2)CC(=Cc2c(-c4c(Cl)cccc4Cl)noc2C2CC2)C3)cc1 [Example 61] | 461 |
| Cn1cc(-c2nn[nH]n2)c2ccc(N3CCC4(CC3)CC(=Cc3c(-c5ccccc5C(F)(F)F)noc3C3CC3)C4)cc21 [Example 62] | 54 |
| Cc1cccc(Cl)c1-c1noc(C2CC2)c1C=C1CC2(CCN(S(=O)(=O)c3cccc(C(=O)O)c3)CC2)C1 [Example 63] | 661 |

| Structure (SMILES) | EC50 [nM] |
| --- | --- |
| O=C(O)c1cccc(N2CCC3(CC2)CC(=Cc2c(-c4c(Cl)cccc4Cl)noc2C2CC2)C3)c1 [Example 64] | 370 |
| O=C(O)c1cc2ccc(N3CCC4(CC3)CC(Cc3c(-c5c(Cl)cccc5Cl)noc3C3CC3)C4)cc2nn1 [Example 65] | 204 |
| O=C(O)c1ccc(N2CCC3(CC2)CC(=Cc2c(-c4c(Cl)cccc4Cl)noc2C2CC2)C3)cc1 [Example 66] | 693 |
| COc1cc(C(=O)O)nc2ccc(N3CCC4(CC3)CC(Cc3c(-c5ccccc5C(F)(F)F)noc3C3CC3)C4)cc12 [Example 69] | 17 |
| COc1cc(C(=O)O)nc2ccc(N3CCC4(CC3)CC(=Cc3c(-c5ccccc5OC(F)(F)F)noc3C3CC3)C4)cc12 [Example 70] | 65 |
| COc1cc(C(=O)O)nc2ccc(N3CCC4(CC3)CC(Cc3c(-c5ccccc5OC(F)(F)F)noc3C3CC3)C4)cc12 [Example 71] | 16 |
| COc1cc(C(=O)O)nc2ccc(N3CCC4(CC3)CC(=Cc3c(-c5ccccc5C(F)(F)F)noc3C3CC3)C4)cc12 [Example 72] | 21 |
| O=C(O)c1cc(C(F)(F)F)c2cc(N3CCC4(CC3)CC(=Cc3c(-c5c(Cl)cncc5Cl)noc3C3CC3)C4)ccc2n1 [Example 73] | 18 |
| Cc1nc(C(=O)O)c2ccc(N3CCC4(CC3)CC(=Cc3c(-c5ccccc5C(F)(F)F)noc3C3CC3)C4)cn12 [Example 74] | 114 |
| Cc1nc(C(=O)O)c2ccc(N3CCC4(CC3)CC(Cc3c(-c5ccccc5C(F)(F)F)noc3C3CC3)C4)cn12 [Example 75] | 1990 |
| COc1cc(C(=O)O)nc2ccc(N3CCC4(CC3)CC(=Cc3c(-c5c(Cl)cncc5Cl)noc3C3CC3)C4)cc12 [Example 76] | 14 |
| O=C(O)c1cn(C(F)F)c2cc(N3CCC4(CC3)CC(=Cc3c(-c5c(Cl)cncc5Cl)noc3C3CC3)C4)ccc12 [Example 77] | 40 |
| Cc1cc(C(=O)O)nc2ccc(N3CCC4(CC3)CC(Cc3c(-c5ccccc5C(F)(F)F)noc3C3CC3)C4)cc12 [Example 78] | 16 |
| O=C(O)c1cc(OC(F)F)c2cc(N3CCC4(CC3)CC(Cc3c(-c5ccccc5C(F)(F)F)noc3C3CC3)C4)ccc2n1 [Example 79] | 2 |
| CC(C)Oc1cc(C(=O)O)nc2ccc(N3CCC4(CC3)CC(=Cc3c(-c5ccccc5OC(F)(F)F)noc3C3CC3)C4)cc12 [Example 80] | 2 |
| O=C(O)c1cc(OC(F)F)c2cc(N3CCC4(CC3)CC(=Cc3c(-c5c(Cl)cncc5Cl)noc3C3CC3)C4)ccc2n1 [Example 81] | 3 |
| CC(C)Oc1cc(C(=O)O)nc2ccc(N3CCC4(CC3)CC(=Cc3c(-c5ccccc5C(F)(F)F)noc3C3CC3)C4)cc12 [Example 83] | 5 |
| CC(C)Oc1cc(C(=O)O)nc2ccc(N3CCC4(CC3)CC(Cc3c(-c5ccccc5C(F)(F)F)noc3C3CC3)C4)cc12 [Example 84] | 19 |
| CC(C)Oc1cc(C(=O)O)nc2ccc(N3CCC4(CC3)CC(=Cc3c(-c5c(Cl)cncc5Cl)noc3C3CC3)C4)cc12 [Example 85] | 3 |
| O=C(O)c1cc(OC(F)F)c2cc(N3CCC4(CC3)CC(=Cc3c(-c5ccccc5C(F)(F)F)noc3C3CC3)C4)ccc2n1 [Example 86] | 10 |
| O=C(O)c1cc(OCC2CC2)c2cc(N3CCC4(CC3)CC(=Cc3c(-c5ccccc5OC(F)(F)F)noc3C3CC3)C4)ccc2n1 [Example 87] | 34 |
| O=C(O)c1cc(F)c2nc(N3CCC4(CC3)CC(=Cc3c(-c5c(Cl)cncc5Cl)noc3C3CC3)C4)sc2c1 [Example 88] | 69 |
